Measurements from publication PMC11003488 (Journal of Enzyme Inhibition and Medicinal Chemistry, 2023).
Like-named read-outs stand apart in the source and are kept apart here.

Columns and labels:
MALME-3M = assay: NCI-60 SRB growth inhibition, one-dose and five-dose; format: cell-based; settings: Homo sapiens
NCI-H23 = assay: as above; format: cell-based; settings: Homo sapiens
MCF7 = assay: as above; format: cell-based; settings: Homo sapiens
NCI-H226 = assay: as above; format: cell-based; settings: Homo sapiens
M14 = assay: as above; format: cell-based; settings: Homo sapiens
NCI-H460 = assay: as above; format: cell-based; settings: Homo sapiens
HS 578 T = assay: as above; format: cell-based; settings: Homo sapiens
A498 = assay: as above; format: cell-based; settings: Homo sapiens
PC-3 = assay: as above; format: cell-based; settings: Homo sapiens
HCT-15 = assay: as above; format: cell-based; settings: Homo sapiens
OVCAR-4 = assay: as above; format: cell-based; settings: Homo sapiens
HCC-2998 = assay: as above; format: cell-based; settings: Homo sapiens
HOP-62 = assay: as above; format: cell-based; settings: Homo sapiens
[1] = system: NCI 60-cell line panel (full panel); assay: NCI-60 SRB growth inhibition, full panel mean / MG-MID; format: cell-based, human; settings: for GI50: Homo sapiens, 60 cell
IGROV1 = assay: NCI-60 SRB growth inhibition, one-dose and five-dose; format: cell-based; settings: Homo sapiens
COLO 205 = assay: as above; format: cell-based; settings: Homo sapiens
OVCAR-3 = assay: as above; format: cell-based; settings: Homo sapiens
SNB-75 = assay: as above; format: cell-based; settings: Homo sapiens
UACC-62 = assay: as above; format: cell-based; settings: Homo sapiens
HT29 = assay: as above; format: cell-based; settings: Homo sapiens
LOX IMVI = assay: as above; format: cell-based; settings: Homo sapiens
SK-MEL-28 = assay: as above; format: cell-based; settings: Homo sapiens
ACHN = assay: as above; format: cell-based; settings: Homo sapiens
T-47D = assay: as above; format: cell-based; settings: Homo sapiens, T47D
SK-MEL-5 = assay: as above; format: cell-based; settings: Homo sapiens
EKVX = assay: as above; format: cell-based; settings: Homo sapiens
NCI/ADR-RES = assay: as above; format: cell-based; settings: Homo sapiens
786-0 = assay: as above; format: cell-based; settings: Homo sapiens
SF-268 = assay: as above; format: cell-based; settings: Homo sapiens
NCI-H522 = assay: as above; format: cell-based; settings: Homo sapiens
TK-10 = assay: as above; format: cell-based; settings: Homo sapiens
HCT-116 = assay: as above; format: cell-based; settings: Homo sapiens
CCRF-CEM = assay: as above; format: cell-based; settings: Homo sapiens
U251 = assay: as above; format: cell-based; settings: Homo sapiens
NCI-H322M = assay: as above; format: cell-based; settings: Homo sapiens
K-562 = assay: as above; format: cell-based; settings: Homo sapiens
BT-549 = assay: as above; format: cell-based; settings: Homo sapiens
SK-OV-3 = assay: as above; format: cell-based; settings: Homo sapiens
SK-MEL-2 = assay: as above; format: cell-based; settings: Homo sapiens, SK-MEL-2, read-out: percent growth inhibition
OVCAR-5 = assay: as above; format: cell-based; settings: Homo sapiens
KM12 = assay: as above; format: cell-based; settings: Homo sapiens
HOP-92 = assay: as above; format: cell-based; settings: Homo sapiens
[2] = read-out: percent growth inhibition

O=C(/C=C/c1cccnc1)c1cccc(NCc2csc3ccccc23)c1 [Compound 5d, (E)-1–(3-((benzo[b]thiophen-3-ylmethyl)amino)phenyl)-3-(pyridin-3-yl)prop-2-en-1-one]
GI50 (MALME-3M): 5.92 µM | inhibition at 10 µM (MALME-3M; [2]): 104% | GI50 (NCI-H23; NCI-H23): 3.94 µM | inhibition at 10 µM (NCI-H23; NCI-H23, read-out: percent growth inhibition): 139% | GI50 (MCF7; MCF7): 1.58 µM | inhibition at 10 µM (MCF7; MCF7, read-out: percent growth inhibition): 176% | GI50 (NCI-H226; NCI-H226): 3.43 µM | inhibition at 10 µM (NCI-H226; NCI-H226, read-out: percent growth inhibition): 111% | GI50 (M14; M14): 4.14 µM | inhibition at 10 µM (M14; M14, read-out: percent growth inhibition): 129% | GI50 (NCI-H460; NCI-H460): 4.98 µM | inhibition at 10 µM (NCI-H460; NCI-H460, read-out: percent growth inhibition): 91.3% | GI50 (HS 578 T): 4.49 µM | inhibition at 10 µM (HS 578 T; [2]): 76.9% | GI50 (A498; A498): 12.1 µM | inhibition at 10 µM (A498; A498, read-out: percent growth inhibition): 36.5% | GI50 (PC-3; PC-3): 3.76 µM | inhibition at 10 µM (PC-3; PC-3, read-out: percent growth inhibition): 99.2% | GI50 (HCT-15; HCT-15): 1.92 µM | inhibition at 10 µM (HCT-15; HCT-15, read-out: percent growth inhibition): 141% | GI50 (OVCAR-4; OVCAR-4): 4.27 µM | inhibition at 10 µM (OVCAR-4; OVCAR-4, read-out: percent growth inhibition): 82.5% | GI50 (HCC-2998; HCC 2998): 3.66 µM | inhibition at 10 µM (HCC-2998; HCC 2998, read-out: percent growth inhibition): 188% | GI50 (HOP-62; HOP-62): 10.2 µM | inhibition at 10 µM (HOP-62; HOP-62, read-out: percent growth inhibition): 65.2% | GI50 ([1]; read-out: Full panel GI50 mean): 4.74 µM | GI50 ([1]; read-out: Full panel MG-MID GI50): 4.74 µM | Full panel Mean GI % ([1]; mean over NCI-60 panel, single dose 10 µM): 120.02% | GI50 (IGROV1; IGROV-1): 3.32 µM | inhibition at 10 µM (IGROV1; IGROV-1, read-out: percent growth inhibition): 108% | GI50 (COLO 205; COLO 205): 11.6 µM | inhibition at 10 µM (COLO 205; COLO 205, read-out: percent growth inhibition): 86.5% | GI50 (OVCAR-3; OVCAR-3): 3.19 µM | inhibition at 10 µM (OVCAR-3; OVCAR-3, read-out: percent growth inhibition): 157% | GI50 (SNB-75; SNB-75): 3.34 µM | inhibition at 10 µM (SNB-75; SNB-75, read-out: percent growth inhibition): 69.9% | GI50 (UACC-62; UACC-62): 3.75 µM | inhibition at 10 µM (UACC-62; UACC-62, read-out: percent growth inhibition): 151% | GI50 (HT29; HT-29): 3.12 µM | inhibition at 10 µM (HT29; HT-29, read-out: percent growth inhibition): 165% | GI50 (LOX IMVI): 1.69 µM | inhibition at 10 µM (LOX IMVI; [2]): 198% | GI50 (SK-MEL-28; SK-MEL-28): 3.55 µM | inhibition at 10 µM (SK-MEL-28; SK-MEL-28, read-out: percent growth inhibition): 145% | GI50 (ACHN): 2.82 µM | inhibition at 10 µM (ACHN; [2]): 155% | GI50 (T-47D): 2.83 µM | inhibition at 10 µM (T-47D; [2]): 91.2% | GI50 (SK-MEL-5; SK-MEL-5): 2.89 µM | inhibition at 10 µM (SK-MEL-5; SK-MEL-5, read-out: percent growth inhibition): 163% | GI50 (EKVX): 3.98 µM | inhibition at 10 µM (EKVX; [2]): 106% | GI50 (NCI/ADR-RES): 2.15 µM | inhibition at 10 µM (NCI/ADR-RES; [2]): 101% | GI50 (786-0; 786-0): 8.65 µM | inhibition at 10 µM (786-0; 786-0, read-out: percent growth inhibition): 182% | GI50 (SF-268; SF-268): 12 µM | inhibition at 10 µM (SF-268; SF-268, read-out: percent growth inhibition): 69.7% | GI50 (NCI-H522; NCI-H522): 1.78 µM | inhibition at 10 µM (NCI-H522; NCI-H522, read-out: percent growth inhibition): 170% | GI50 (TK-10; TK-10): 6.18 µM | inhibition at 10 µM (TK-10; TK-10, read-out: percent growth inhibition): 60% | GI50 (HCT-116; HCT-116, HCT-116, five-dose screening): 1.82 µM | inhibition at 10 µM (HCT-116; HCT-116, read-out: percent growth inhibition): 195% | GI50 (CCRF-CEM): 3.01 µM | inhibition at 10 µM (CCRF-CEM; [2]): 134% | GI50 (U251; U-251): 1.92 µM | inhibition at 10 µM (U251; U-251, read-out: percent growth inhibition): 198% | GI50 (NCI-H322M): 11.5 µM | inhibition at 10 µM (NCI-H322M; [2]): 42.6% | GI50 (K-562; K562): 3.14 µM | inhibition at 10 µM (K-562; K562, read-out: percent growth inhibition): 111% | GI50 (BT-549; BT-549): 2.75 µM | inhibition at 10 µM (BT-549; BT-549, read-out: percent growth inhibition): 174% | GI50 (SK-OV-3; SK-OV-3): 11.8 µM | inhibition at 10 µM (SK-OV-3; SK-OV-3, read-out: percent growth inhibition): 35.8% | inhibition at 10 µM (SK-MEL-2): 74% | GI50 (OVCAR-5; OVCAR-5): 7.07 µM | inhibition at 10 µM (OVCAR-5; OVCAR-5, read-out: percent growth inhibition): 91.5% | GI50 (KM12; KM12): 3.58 µM | inhibition at 10 µM (KM12; KM12, read-out: percent growth inhibition): 158% | GI50 (HOP-92; HOP-92): 10.2 µM | inhibition at 10 µM (HOP-92; HOP-92, read-out: percent growth inhibition): 39.4%
